Measurements published in doi:10.1101/2024.08.19.608619, “Discovery of potent SARS-CoV-2 nsp3 macrodomain inhibitors uncovers lack of translation to cellular antiviral response” (bioRxiv, 2024).

Key:
PDE3A (h) = target: T1, PDE3A (h) (Homo sapiens, UniProt Q14432); assay: In vitro CEREP profiling, PDE3A (h); format: biochemical; conditions: test compound concentration 10 uM, Enzyme and Cell-based assays; for inhibition at 10 µM: read-out: perc_inhibition: % inhibition of control enzyme activity, PDE3A (h)
T1 construct: purchased Eurofins Cerep (SafetyScreen44), recognised from the panel format
T1 sequence (Q14432 whole entry): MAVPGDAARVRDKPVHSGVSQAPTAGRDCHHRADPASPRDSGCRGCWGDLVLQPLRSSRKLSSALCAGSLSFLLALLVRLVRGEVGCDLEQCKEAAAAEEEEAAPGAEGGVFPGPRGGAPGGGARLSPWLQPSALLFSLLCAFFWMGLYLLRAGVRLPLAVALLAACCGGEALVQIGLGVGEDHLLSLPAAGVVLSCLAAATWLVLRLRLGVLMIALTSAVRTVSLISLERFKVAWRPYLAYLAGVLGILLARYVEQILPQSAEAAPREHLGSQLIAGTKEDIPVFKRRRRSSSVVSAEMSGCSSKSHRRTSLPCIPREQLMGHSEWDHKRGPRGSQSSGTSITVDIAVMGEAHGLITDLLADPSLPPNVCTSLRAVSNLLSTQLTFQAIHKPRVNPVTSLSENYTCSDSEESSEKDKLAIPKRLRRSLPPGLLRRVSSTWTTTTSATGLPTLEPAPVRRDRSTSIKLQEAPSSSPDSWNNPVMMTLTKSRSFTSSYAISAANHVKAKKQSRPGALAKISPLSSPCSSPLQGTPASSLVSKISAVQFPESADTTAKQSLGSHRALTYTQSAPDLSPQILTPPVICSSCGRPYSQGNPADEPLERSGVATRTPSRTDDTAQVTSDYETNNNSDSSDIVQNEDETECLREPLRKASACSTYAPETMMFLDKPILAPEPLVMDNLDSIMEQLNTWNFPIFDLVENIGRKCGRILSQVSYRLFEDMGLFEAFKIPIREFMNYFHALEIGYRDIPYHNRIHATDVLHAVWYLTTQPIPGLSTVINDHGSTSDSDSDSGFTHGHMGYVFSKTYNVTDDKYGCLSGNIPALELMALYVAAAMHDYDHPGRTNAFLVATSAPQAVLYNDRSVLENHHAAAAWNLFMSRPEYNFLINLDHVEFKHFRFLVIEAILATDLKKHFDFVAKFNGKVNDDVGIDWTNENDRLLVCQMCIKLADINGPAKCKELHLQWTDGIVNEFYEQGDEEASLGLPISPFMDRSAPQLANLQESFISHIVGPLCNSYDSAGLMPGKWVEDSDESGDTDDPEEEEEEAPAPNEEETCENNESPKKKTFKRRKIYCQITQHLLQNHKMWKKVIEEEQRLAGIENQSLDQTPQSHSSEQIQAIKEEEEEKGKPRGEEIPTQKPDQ
Source text: (§1) Supplement media-1.zip/Safety_Panel_Profile.csv, table | column: perc_inhibition

D1 (h) = target: T2, D1 (h) (Homo sapiens, UniProt P21728); assay: In vitro CEREP profiling, D1 (h) (antagonist radioligand); format: binding; conditions: test compound 10 uM; for inhibition at 10 µM: read-out: perc_inhibition (% inhibition of the binding of a ligand specific for each target)
T2 construct: purchased Eurofins Cerep (SafetyScreen44), recognised from the panel format
T2 sequence (P21728 whole entry): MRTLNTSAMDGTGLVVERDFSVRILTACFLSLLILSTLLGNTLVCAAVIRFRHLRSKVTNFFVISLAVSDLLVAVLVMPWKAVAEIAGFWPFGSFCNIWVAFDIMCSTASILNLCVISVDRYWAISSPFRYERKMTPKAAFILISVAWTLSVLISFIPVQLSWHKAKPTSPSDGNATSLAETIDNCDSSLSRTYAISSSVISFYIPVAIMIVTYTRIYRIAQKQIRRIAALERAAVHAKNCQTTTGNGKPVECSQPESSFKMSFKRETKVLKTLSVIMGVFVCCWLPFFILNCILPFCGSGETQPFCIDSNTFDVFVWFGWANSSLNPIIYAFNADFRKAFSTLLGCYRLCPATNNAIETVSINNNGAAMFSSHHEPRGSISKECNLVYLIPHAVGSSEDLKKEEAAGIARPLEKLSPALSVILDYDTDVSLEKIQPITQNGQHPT
Source text: as §1

MAO-A = target: T3, MAO-A (Rattus norvegicus, UniProt P21396); assay: In vitro CEREP profiling, MAO-A (antagonist radioligand); format: binding; conditions: test compound concentration 10 uM; for inhibition at 10 µM: read-out: perc_inhibition (% inhibition of the binding of a ligand specific for each target)
T3 construct: purchased Eurofins Cerep (SafetyScreen44), recognised from the panel format
T3 sequence (P21396 1-526): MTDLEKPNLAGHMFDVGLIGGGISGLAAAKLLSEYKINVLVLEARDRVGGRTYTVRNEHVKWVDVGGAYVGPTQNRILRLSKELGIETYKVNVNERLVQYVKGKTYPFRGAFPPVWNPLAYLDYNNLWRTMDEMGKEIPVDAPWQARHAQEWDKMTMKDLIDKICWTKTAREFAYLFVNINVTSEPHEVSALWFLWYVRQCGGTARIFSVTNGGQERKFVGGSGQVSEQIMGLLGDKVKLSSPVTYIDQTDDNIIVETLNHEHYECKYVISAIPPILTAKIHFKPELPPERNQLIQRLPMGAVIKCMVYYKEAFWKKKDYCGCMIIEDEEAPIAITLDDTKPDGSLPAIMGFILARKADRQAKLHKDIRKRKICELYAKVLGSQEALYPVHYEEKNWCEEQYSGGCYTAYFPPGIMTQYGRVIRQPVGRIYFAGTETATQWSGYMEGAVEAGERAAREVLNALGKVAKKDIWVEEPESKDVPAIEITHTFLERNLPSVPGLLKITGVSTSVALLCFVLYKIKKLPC
Source text: as §1

M3 (h) = target: T4, M3 (h) (Homo sapiens, UniProt P20309); assay: In vitro CEREP profiling, M3 (h) (antagonist radioligand); format: binding; conditions: test compound concentration 10 uM; for inhibition at 10 µM: read-out: perc_inhibition (% inhibition of the binding of a ligand specific for each target)
T4 construct: purchased Eurofins Cerep (SafetyScreen44), recognised from the panel format
T4 sequence (P20309 whole entry): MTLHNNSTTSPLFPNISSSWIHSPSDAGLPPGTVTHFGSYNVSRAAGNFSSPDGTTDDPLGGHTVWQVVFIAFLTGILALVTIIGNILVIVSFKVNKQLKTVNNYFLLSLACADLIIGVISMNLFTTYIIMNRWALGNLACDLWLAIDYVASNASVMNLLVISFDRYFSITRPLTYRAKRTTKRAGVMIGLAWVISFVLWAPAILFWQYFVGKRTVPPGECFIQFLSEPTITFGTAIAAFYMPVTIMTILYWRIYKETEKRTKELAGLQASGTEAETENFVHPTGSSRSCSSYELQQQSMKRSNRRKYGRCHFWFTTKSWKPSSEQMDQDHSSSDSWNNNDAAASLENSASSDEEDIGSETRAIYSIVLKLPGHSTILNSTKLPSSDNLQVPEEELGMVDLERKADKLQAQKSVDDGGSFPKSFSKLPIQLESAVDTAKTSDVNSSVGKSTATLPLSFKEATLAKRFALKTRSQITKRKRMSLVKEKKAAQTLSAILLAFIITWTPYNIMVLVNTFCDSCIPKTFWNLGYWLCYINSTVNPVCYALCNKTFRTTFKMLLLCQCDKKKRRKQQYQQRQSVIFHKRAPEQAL
Source text: as §1

Na+ channel (site 2) = assay: In vitro CEREP profiling, Na+ channel (site 2) (antagonist radioligand); format: binding; conditions: test compound concentration 10 uM
Source text: as §1

hERG = hERG (Homo sapiens, UniProt Q12809); assay: In vitro hERG cardiotoxocity; conditions: for IC50: top test concentration 30 uM
Source text: Supplement media-1.zip/Cardiotoxicity.csv, table | column: ic50; perc_inhibition_top_conc

NMDA = assay: In vitro CEREP profiling, NMDA (antagonist radioligand); format: binding; conditions: test compound concentration 10 uM
Source text: as §1

delta (DOP) (h) = target: T5, delta (DOP) (h) (Homo sapiens, UniProt P41143); assay: In vitro CEREP profiling, delta (DOP) (h) (agonist radioligand); format: binding; conditions: test compound concentration 10 uM; for inhibition at 10 µM: read-out: perc_inhibition (% inhibition of the binding of a ligand specific for each target)
T5 construct: purchased Eurofins Cerep (SafetyScreen44), recognised from the panel format
T5 sequence (P41143 whole entry): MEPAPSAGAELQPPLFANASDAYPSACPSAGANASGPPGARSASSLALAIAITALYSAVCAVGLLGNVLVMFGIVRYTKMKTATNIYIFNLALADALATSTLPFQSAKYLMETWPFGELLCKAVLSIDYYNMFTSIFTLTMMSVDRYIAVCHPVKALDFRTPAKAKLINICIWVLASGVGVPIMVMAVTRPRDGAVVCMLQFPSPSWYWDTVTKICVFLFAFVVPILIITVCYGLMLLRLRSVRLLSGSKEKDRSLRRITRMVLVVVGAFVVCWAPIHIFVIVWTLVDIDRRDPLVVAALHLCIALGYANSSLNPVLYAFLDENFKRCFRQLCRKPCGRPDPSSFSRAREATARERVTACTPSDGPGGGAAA
Source text: as §1

[1] = In vitro human hepatocyte stability; format: in vitro ADME
Source text: Supplement media-1.zip/Hepatocyte_Stability.csv, table | column: clint; t_half

COX1(h) = target: T6, COX1(h) (Homo sapiens, UniProt P23219); assay: In vitro CEREP profiling, COX1(h); format: biochemical; conditions: test compound concentration 10 uM, Enzyme and Cell-based assays; for inhibition at 10 µM: read-out: perc_inhibition: % inhibition of control enzyme activity, COX1(h)
T6 construct: purchased Eurofins Cerep (SafetyScreen44), recognised from the panel format
T6 sequence (P23219 24-599): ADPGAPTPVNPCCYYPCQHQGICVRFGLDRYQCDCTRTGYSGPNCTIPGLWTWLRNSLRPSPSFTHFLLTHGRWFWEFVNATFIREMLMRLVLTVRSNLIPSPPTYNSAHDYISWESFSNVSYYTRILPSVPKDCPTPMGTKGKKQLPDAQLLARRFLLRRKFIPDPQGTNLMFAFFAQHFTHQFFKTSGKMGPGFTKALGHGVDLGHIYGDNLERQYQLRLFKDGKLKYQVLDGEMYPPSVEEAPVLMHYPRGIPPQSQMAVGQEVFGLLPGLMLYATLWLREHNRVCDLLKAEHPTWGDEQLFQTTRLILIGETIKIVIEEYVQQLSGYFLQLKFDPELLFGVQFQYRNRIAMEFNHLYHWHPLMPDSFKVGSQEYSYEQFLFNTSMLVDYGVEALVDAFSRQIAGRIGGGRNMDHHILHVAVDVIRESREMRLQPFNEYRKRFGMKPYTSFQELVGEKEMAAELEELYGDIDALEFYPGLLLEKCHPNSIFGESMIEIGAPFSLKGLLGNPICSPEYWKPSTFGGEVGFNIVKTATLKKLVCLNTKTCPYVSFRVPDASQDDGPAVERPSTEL
Source text: as §1

KV channel = assay: In vitro CEREP profiling, KV channel (antagonist radioligand); format: binding; conditions: test compound concentration 10 uM
Source text: as §1

beta2 (h) = target: T7, beta2 (h) (Homo sapiens, UniProt P07550); assay: In vitro CEREP profiling, beta2 (h) (antagonist radioligand); format: binding; conditions: test compound 10 uM; for inhibition at 10 µM: read-out: perc_inhibition (% inhibition of the binding of a ligand specific for each target)
T7 construct: purchased Eurofins Cerep (SafetyScreen44), recognised from the panel format
T7 sequence (P07550 whole entry): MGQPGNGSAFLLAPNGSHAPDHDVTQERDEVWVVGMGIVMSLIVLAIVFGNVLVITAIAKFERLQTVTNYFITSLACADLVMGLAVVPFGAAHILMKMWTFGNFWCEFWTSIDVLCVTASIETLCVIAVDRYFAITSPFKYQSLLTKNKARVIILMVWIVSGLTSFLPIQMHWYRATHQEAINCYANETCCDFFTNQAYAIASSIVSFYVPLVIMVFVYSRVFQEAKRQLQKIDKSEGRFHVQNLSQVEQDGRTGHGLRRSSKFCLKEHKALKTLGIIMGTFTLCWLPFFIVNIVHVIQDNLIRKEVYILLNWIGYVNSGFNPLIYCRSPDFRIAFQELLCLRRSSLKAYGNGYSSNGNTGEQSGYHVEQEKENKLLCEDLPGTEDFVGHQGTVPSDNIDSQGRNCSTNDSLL
Source text: as §1

D2S (h) = target: T8, D2S (h) (Homo sapiens, UniProt P14416); assay: In vitro CEREP profiling, D2S (h) (agonist radioligand); format: binding; conditions: test compound 10 uM; for inhibition at 10 µM: read-out: perc_inhibition (% inhibition of the binding of a ligand specific for each target)
T8 construct: purchased Eurofins Cerep (SafetyScreen44), recognised from the panel format
T8 sequence (P14416 1-414 isoform P14416-2): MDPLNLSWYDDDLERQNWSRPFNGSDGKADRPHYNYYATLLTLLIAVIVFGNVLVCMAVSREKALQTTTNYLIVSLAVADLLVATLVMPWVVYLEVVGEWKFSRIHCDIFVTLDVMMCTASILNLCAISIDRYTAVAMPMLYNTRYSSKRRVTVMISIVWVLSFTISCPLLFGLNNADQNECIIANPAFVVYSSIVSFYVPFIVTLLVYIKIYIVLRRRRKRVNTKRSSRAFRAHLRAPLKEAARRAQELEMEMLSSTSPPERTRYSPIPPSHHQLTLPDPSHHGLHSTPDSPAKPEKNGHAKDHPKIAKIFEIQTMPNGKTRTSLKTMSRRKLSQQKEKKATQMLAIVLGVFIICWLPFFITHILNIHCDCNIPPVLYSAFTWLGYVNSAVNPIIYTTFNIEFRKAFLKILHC
Source text: as §1

H2 (h) = target: T9, H2 (h) (Homo sapiens, UniProt P25021); assay: In vitro CEREP profiling, H2 (h) (antagonist radioligand); format: binding; conditions: test compound concentration 10 uM; for inhibition at 10 µM: read-out: perc_inhibition (% inhibition of the binding of a ligand specific for each target)
T9 construct: purchased Eurofins Cerep (SafetyScreen44), recognised from the panel format
T9 sequence (P25021 whole entry): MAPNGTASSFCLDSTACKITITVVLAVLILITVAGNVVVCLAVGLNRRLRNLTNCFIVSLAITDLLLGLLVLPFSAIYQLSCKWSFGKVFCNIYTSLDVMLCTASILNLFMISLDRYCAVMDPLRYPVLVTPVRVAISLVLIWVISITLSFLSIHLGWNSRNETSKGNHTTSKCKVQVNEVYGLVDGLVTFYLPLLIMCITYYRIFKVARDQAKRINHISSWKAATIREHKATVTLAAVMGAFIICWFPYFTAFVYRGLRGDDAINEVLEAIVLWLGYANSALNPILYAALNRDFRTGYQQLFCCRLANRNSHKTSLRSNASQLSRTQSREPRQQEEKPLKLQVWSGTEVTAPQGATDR
Source text: as §1

human CHRM2 (M2) = target: T10, human CHRM2 (M2) (Homo sapiens, UniProt P08172); assay: Eurofins CEREP panel, M2; format: binding; conditions: for perc_inhibition (% inhibition of the binding of a ligand specific for each target) / inhibition at 10 µM: M2 (h) (antagonist radioligand), test compound concentration 10 uM; for inhibition at 10 µM: read-out: perc_inhibition (% inhibition of the binding of a ligand specific for each target)
T10 construct: purchased Eurofins Cerep (SafetyScreen44), recognised from the panel format
T10 sequence (P08172 1-466): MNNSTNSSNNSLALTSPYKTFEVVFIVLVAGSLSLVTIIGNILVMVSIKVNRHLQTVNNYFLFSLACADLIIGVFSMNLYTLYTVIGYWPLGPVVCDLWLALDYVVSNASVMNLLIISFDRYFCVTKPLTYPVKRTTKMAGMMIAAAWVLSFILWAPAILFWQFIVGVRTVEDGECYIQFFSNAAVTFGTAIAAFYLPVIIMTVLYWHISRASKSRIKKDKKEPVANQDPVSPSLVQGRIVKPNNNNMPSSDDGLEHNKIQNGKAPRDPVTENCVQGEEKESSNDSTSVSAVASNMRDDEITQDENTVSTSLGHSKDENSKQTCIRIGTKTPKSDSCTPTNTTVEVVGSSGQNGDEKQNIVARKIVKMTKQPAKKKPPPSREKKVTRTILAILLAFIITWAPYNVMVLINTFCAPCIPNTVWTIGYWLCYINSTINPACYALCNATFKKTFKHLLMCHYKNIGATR

[2] = target: T11, Potassium Channel hERG (human) (Homo sapiens, UniProt Q12809); assay: In vitro CEREP profiling, Potassium Channel hERG (human)- [3H] Dofetilide; format: binding; conditions: test compound concentration 10 uM
T11 construct: purchased Eurofins Cerep (SafetyScreen44), recognised from the panel format
Source text: as §1

alpha1A (h) = target: T12, alpha1A (h) (Homo sapiens, UniProt P35348); assay: In vitro CEREP profiling, alpha1A (h) (antagonist radioligand); format: binding; conditions: test compound 10 uM; for inhibition at 10 µM: read-out: perc_inhibition (% inhibition of the binding of a ligand specific for each target)
T12 construct: purchased Eurofins Cerep (SafetyScreen44), recognised from the panel format
T12 sequence (P35348 1-466): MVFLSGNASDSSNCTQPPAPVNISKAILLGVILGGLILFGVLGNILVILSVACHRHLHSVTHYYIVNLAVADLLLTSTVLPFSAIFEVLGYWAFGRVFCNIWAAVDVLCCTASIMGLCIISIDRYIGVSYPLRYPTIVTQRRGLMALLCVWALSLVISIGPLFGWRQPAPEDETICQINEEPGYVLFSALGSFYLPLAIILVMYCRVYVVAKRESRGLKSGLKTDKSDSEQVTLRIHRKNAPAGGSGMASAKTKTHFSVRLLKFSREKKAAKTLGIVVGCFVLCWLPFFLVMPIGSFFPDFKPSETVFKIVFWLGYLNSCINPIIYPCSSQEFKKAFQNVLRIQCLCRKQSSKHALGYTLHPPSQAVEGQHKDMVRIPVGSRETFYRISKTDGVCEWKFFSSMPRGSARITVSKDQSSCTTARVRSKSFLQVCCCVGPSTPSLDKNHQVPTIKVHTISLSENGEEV
Source text: as §1

in vitro = conditions: human, hela-ace2 cells, 50.0

Compound	perc_inhibition: % inhibition of control enzyme activity, PDE3A (h) (PDE3A (h)) [%]	perc_inhibition (% inhibition of the binding of a ligand specific for each target) (D1 (h)) [%]	perc_inhibition (% inhibition of the binding of a ligand specific for each target) (MAO-A) [%]	perc_inhibition (% inhibition of the binding of a ligand specific for each target) (M3 (h)) [%]	perc_inhibition (% inhibition of the binding of a ligand specific for each target) (Na+ channel (site 2)) [%]	IC50 (hERG) [µM]	perc_inhibition (% inhibition of the binding of a ligand specific for each target) (NMDA) [%]	perc_inhibition (% inhibition of the binding of a ligand specific for each target) (delta (DOP) (h)) [%]	clint [1] [uL/min/1E6 cells]	t_half [1] [min]	perc_inhibition: % inhibition of control enzyme activity, COX1(h) (COX1(h)) [%]	perc_inhibition (% inhibition of the binding of a ligand specific for each target) (KV channel) [%]	perc_inhibition (% inhibition of the binding of a ligand specific for each target) (beta2 (h)) [%]	perc_inhibition (% inhibition of the binding of a ligand specific for each target) (D2S (h)) [%]	perc_inhibition (% inhibition of the binding of a ligand specific for each target) (H2 (h)) [%]	perc_inhibition (% inhibition of the binding of a ligand specific for each target) (human CHRM2 (M2)) [%]	perc_inhibition (% inhibition of the binding of a ligand specific for each target) [2] [%]	perc_inhibition (% inhibition of the binding of a ligand specific for each target) (alpha1A (h)) [%]	inhibition at 10 µM (PDE3A (h)) [%]	inhibition at 10 µM (D1 (h)) [%]	also measured
CC(C)[C@@H](Nc1ncnc2[nH]c(-c3cnn(C)c3C#N)cc12)c1ccc2c(n1)OCCO2 [ASAP-0010716]	37	10	8	1	12	10.1	1	71	182.0	3.81	-34	2	3	3	-11	15	32	11			
Cn1ncc(-c2cc3c(N[C@@H](c4ccc5c(n4)OCCO5)C(C)(C)C)ncnc3[nH]2)c1C#N [ASAP-0011221]	37	9	10	-8	34	19.5	11	15	171.0	4.04	-14	5	4	13	-10	25	36	54			CC50 at 24 h (in vitro): > 20 µM
CC(C)C(Nc1ncnc2[nH]c(C(=O)NC3CCN(C)C3)cc12)c1ccc2c(c1)S(=O)(=O)CCC2 (centres unmarked) [ASAP-0011198]					16	> 30	1			> 231.0		2							4	-3	inhibition at 10 µM (MAO-A): 3%; inhibition at 10 µM (M3 (h)): -9%; perc_inhibition_top_conc (hERG; at top test concentration 30 uM, 30 µM): 23.0%; inhibition at 30 µM (hERG; human, at top test concentration 30 uM, read-out: perc_inhibition_top_conc): 18%; inhibition at 10 µM (delta (DOP) (h)): -16%; hepatocyte CLint ([1]; hepatocytes): < 3 µL/min/1e6 cells; inhibition at 10 µM (COX1(h)): 44%; inhibition at 10 µM (beta2 (h)): -3%; inhibition at 10 µM (D2S (h)): -7%; inhibition at 10 µM (H2 (h)): -9%; off-target activity at human CHRM2, in words (human CHRM2 (M2); CEREP panel): moderate; inhibition at 10 µM (human CHRM2 (M2)): 52%; inhibition at 10 µM (alpha1A (h)): 38%
Cc1nn(C)cc1-c1cc2c(NC(c3ccc4c(c3)S(=O)(=O)CCC4)C(C)C)ncnc2[nH]1 (centres unmarked) [ASAP-0011446]					-1		-2					1							46	3	inhibition at 10 µM (MAO-A): 5%; inhibition at 10 µM (M3 (h)): -9%; inhibition at 10 µM (delta (DOP) (h)): 16%; inhibition at 10 µM (COX1(h)): -23%; inhibition at 10 µM (beta2 (h)): -7%; inhibition at 10 µM (D2S (h)): -16%; inhibition at 10 µM (H2 (h)): -4%; inhibition at 10 µM (human CHRM2 (M2)): 5%; inhibition at 10 µM (alpha1A (h)): 8%
